The numbers were not newly measured in patent US20060002865A1, “Stable baking soda/peroxide with calcium and phosphate whitening product” (priority 2004, published 2006), which cites them from elsewhere.

For data set [1] the following is noted: aqueous solution, pH about 7.0, about 25° C.

For the compound `[Mg+2].[O-][O-]` [Magnesium peroxide], the “solubility in water (in words)” value is “essentially insoluble”.
Sodium perborate: the solubility in water result was “about 2.5%”.
For the compound `O.O.O=P([O-])([O-])O.[Ca+2]` [dicalcium phosphate dihydrate], the calcium cations released entry in data set [1] is on record as “about 40 ppm”.
